Patent US20260015350A1, “AZAQUINAZOLINE PAN-KRAS INHIBITORS” (Mirati Therapeutics, Inc., priority 2022, published 2026)

How the values were obtained:
KRas^G12D = molecular target: T1, KRas^G12D (Homo sapiens, UniProt P01116, G12D); test: KRas binding assay (TR-FRET tracer displacement), KRas G12D
T1 construct: Biotinylated KRas (corresponding to amino acids 1-169, produced at Accelegan Inc.); biotin (biotinylated); purchased Accelegan Inc

KRas^G12R = molecular target: T2, KRas^G12R (Homo sapiens, UniProt P01116, G12R); test: KRas binding assay (TR-FRET tracer displacement), KRas G12R
T2 construct: Biotinylated KRas (corresponding to amino acids 1-169, produced at Accelegan Inc.); biotin (biotinylated); purchased Accelegan Inc
T2 sequence (P01116 1-169 isoform P01116-2 G12R): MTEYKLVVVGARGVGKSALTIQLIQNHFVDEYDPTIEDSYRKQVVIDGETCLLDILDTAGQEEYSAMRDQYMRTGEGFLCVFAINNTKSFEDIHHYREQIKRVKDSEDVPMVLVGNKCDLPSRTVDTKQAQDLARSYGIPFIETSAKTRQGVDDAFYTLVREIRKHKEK

KRas^G12V = molecular target: T3, KRas^G12V (Homo sapiens, UniProt P01116, G12V); test: KRas binding assay (TR-FRET tracer displacement), KRas G12V
T3 construct: Biotinylated KRas (corresponding to amino acids 1-169, produced at Accelegan Inc.); biotin (biotinylated); purchased Accelegan Inc
T3 sequence (P01116 1-169 isoform P01116-2 G12V): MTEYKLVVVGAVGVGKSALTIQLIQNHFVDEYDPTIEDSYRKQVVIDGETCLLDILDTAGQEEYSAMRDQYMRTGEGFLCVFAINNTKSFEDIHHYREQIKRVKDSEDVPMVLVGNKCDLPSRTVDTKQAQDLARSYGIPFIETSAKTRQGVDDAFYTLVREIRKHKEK

[1] = test system: KRas-mediated phosphorylation of ERK in MKN1 cells; test: Inhibition of KRas-mediated phosphorylation of ERK (Cisbio HTRF pERK), MKN1 cells; type: cell-based; details: Homo sapiens, MKN-1
In short: (§1)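 Seeding density was 6,000 cells/well; medium RPMI, 10% FBS. Read-out by homogeneous time-resolved fluorescence (pERK) after 4 hours covered at room temperature.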

[2] = test system: KRas-mediated phosphorylation of ERK in PSN1 cells; test: Inhibition of KRas-mediated phosphorylation of ERK (Cisbio HTRF pERK), PSN1 cells; type: cell-based; details: Homo sapiens
In short: as §1

[3] = test system: KRas-mediated phosphorylation of ERK in AsPC-1 cells; test: Inhibition of KRas-mediated phosphorylation of ERK (Cisbio HTRF pERK), AsPC-1 cells; type: cell-based; details: Homo sapiens, ASPC1, AsPC-1 cells; HTRF pERK
In short: (§2)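 6,000 cells/well; cpd 10 uM top, 3-fold x10, 0.8% DMSO final; 3 hr incubation; Min ctrl Trametinib 0.2 uM; lysis 40 min 4° C shaking; d2 + Cryptate Ab mix, 2 hr RT; HTRF read.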

[4] = test system: KRas-mediated phosphorylation of ERK in H727 cells; test: Inhibition of KRas-mediated phosphorylation of ERK (Cisbio HTRF pERK), H727 cells; type: cell-based; details: Homo sapiens, NCI-H727, H727 cells; HTRF pERK
In short: as §2

[5] = test system: KRas-mediated phosphorylation of ERK in A549 cells; test: Inhibition of KRas-mediated phosphorylation of ERK (Cisbio HTRF pERK), A549 cells; type: cell-based; details: Homo sapiens; for IC50: HTRF pERK
In short: (§3)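 Each compound was tested at 10 concentrations, threefold apart with 10 uM the highest, for 3 hrs on 6,000 seeded cells; final DMSO was 0.8% and Trametinib (0.2 uM) served as Min control. Lysed cells were analysed for pERK by HTRF.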

[6] = test system: KRas-mediated phosphorylation of ERK in H460 cells; test: Inhibition of KRas-mediated phosphorylation of ERK (Cisbio HTRF pERK), H460 cells; type: cell-based; details: Homo sapiens; for IC50: NCI-H460, HTRF pERK
In short: as §2

[7] = test system: KRas-mediated phosphorylation of ERK in HCT116 cells; test: Inhibition of KRas-mediated phosphorylation of ERK (Cisbio HTRF pERK), HCT116 cells; type: cell-based; details: Homo sapiens; for IC50: HCT-116, HTRF pERK
In short: as §3

[8] = test system: KRas-mediated phosphorylation of ERK in H358 cells; test: Inhibition of KRas-mediated phosphorylation of ERK (Cisbio HTRF pERK), H358 cells; type: cell-based; details: Homo sapiens; for IC50: NCI-H358, HTRF pERK
In short: as §2

T1 sequence (P01116 1-169 isoform P01116-2 G12D): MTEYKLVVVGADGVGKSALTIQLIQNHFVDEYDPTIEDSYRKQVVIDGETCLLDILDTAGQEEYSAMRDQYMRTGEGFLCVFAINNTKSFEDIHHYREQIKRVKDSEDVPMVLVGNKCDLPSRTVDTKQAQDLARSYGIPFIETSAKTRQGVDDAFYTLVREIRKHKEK

Row | SMILES | IC50 (KRas^G12D) | IC50 (KRas^G12R) | IC50 (KRas^G12V) | IC50 [1] | IC50 [2] | IC50 [3] | IC50 [4] | IC50 [5] | IC50 [6] | IC50 [7] | IC50 [8] | inhibition at 0.1 µM ([5]; A549, 3 h, single point, 100 nM compound, 3 hrs) | inhibition at 0.1 µM ([6]; NCI-H460, 3 h, single point, 100 nM compound, 3 hrs) | inhibition at 0.1 µM ([7]; HCT-116, 3 h, single point, 100 nM compound, 3 hrs) | inhibition at 0.1 µM ([8]; NCI-H358, 3 h, single point, 100 nM compound, 3 hrs)
1 | CCc1c(F)ccc2cc(O)cc(-c3ncc4c(N5CCOC[C@@]6(CCO6)C5)nc(OC[C@@]56CCCN5C[C@H](F)C6)nc4c3F)c12 [Example 836, 5-ethyl-6-fluoro-4-(8-fluoro-2-(((2R,7aS)-2-fluorotetrahydro-1H-pyrrolizin-7a(5H)-yl)methoxy)-4-((R)-1,6-dioxa-9-azaspiro[3.6]decan-9-yl)pyrido[4,3-d]pyrimidin-7-yl)naphthalen-2-ol] | 24 nM | 4 nM | 6 nM | 19 nM | 9790 nM | 386 nM | 231 nM | 69 nM | 32 nM | 119 nM | 22 nM | – | – | – | –
2 | CCc1c(F)ccc2cc(O)cc(-c3ncc4c(N5C[C@H]6C[C@@H](C5)C(O)C6O)nc(OC[C@@]56CCCN5C[C@H](F)C6)nc4c3F)c12 (single isomer, unassigned) [Example 570] | 12 nM | < 2 nM | 3 nM | 56 nM | > 10000 nM | 1770 nM | 280 nM | 542 nM | – | – | – | 26% | 38% | 26% | 69%
3 | CCc1c(F)ccc2cc(O)cc(-c3ncc4c(N5CC6CCC(COCCOC)(C6)C5)nc(OC[C@@]56CCCN5C[C@H](F)C6)nc4c3F)c12 (stereo partly drawn) [Example 857, 5-ethyl-6-fluoro-4-(8-fluoro-2-(((2R,7aS)-2-fluorotetrahydro-1H-pyrrolizin-7a(5H)-yl)methoxy)-4-(1-((2-methoxyethoxy)methyl)-3-azabicyclo[3.2.1]octan-3-yl)pyrido[4,3-d]pyrimidin-7-yl)naphthalen-2-ol] | 19 nM | 9 nM | 6 nM | 6 nM | > 10000 nM | 967 nM | 352 nM | 611 nM | 144 nM | 410 nM | 369 nM | – | – | – | –
4 | CCc1c(F)ccc2cc(O)cc(-c3ncc4c(N5CCC[C@@](C)(O)C5)nc(OC[C@@]56CCCN5[C@H](COC)CC6)nc4c3F)c12 [Example 826, (R)-1-(7-(8-ethyl-7-fluoro-3-hydroxynaphthalen-1-yl)-8-fluoro-2-(((3S,7aS)-3-(methoxymethyl)tetrahydro-1H-pyrrolizin-7a(5H)-yl)methoxy)pyrido[4,3-d]pyrimidin-4-yl)-3-methylpiperidin-3-ol] | < 2 nM | < 2 nM | < 2 nM | 7 nM | 2390 nM | 12 nM | 51 nM | 44 nM | 30 nM | 74 nM | 9 nM | – | – | – | –
5 | CCc1c(F)ccc2cc(O)cc(-c3ncc4c(N5C[C@H]6CC[C@@](C(=O)NC)(C5)C6(F)F)nc(OC[C@@]56CCCN5C[C@H](F)C6)nc4c3F)c12 [Example 907, (1S,5R)-3-(7-(8-ethyl-7-fluoro-3-hydroxynaphthalen-1-yl)-8-fluoro-2-(((2R,7aS)-2-fluorotetrahydro-1H-pyrrolizin-7a(5H)-yl)methoxy)pyrido[4,3-d]pyrimidin-4-yl)-8,8-difluoro-N-methyl-3-azabicyclo[3.2.1]octane-1-carboxamide] | 88 nM | 18 nM | 23 nM | 137 nM | > 10000 nM | 2040 nM | 922 nM | 827 nM | 590 nM | 1580 nM | 325 nM | – | – | – | –
6 | CCc1c(F)ccc2cc(O)cc(-c3ncc4c(N5CCC[C@@](C)(O)C5)nc(OC[C@@]56CCCN5[C@H](COC(C)C)CC6)nc4c3F)c12 [Example 895, (R)-1-(7-(8-ethyl-7-fluoro-3-hydroxynaphthalen-1-yl)-8-fluoro-2-(((3S,7aS)-3-(isopropoxymethyl)tetrahydro-1H-pyrrolizin-7a(5H)-yl)methoxy)pyrido[4,3-d]pyrimidin-4-yl)-3-methylpiperidin-3-ol] | < 2 nM | < 2 nM | < 2 nM | 11 nM | 905 nM | 27 nM | 119 nM | 73 nM | 42 nM | 79 nM | 11 nM | – | – | – | –
7 | CCOC[C@@H]1CC[C@]2(COc3nc(N4CCC[C@@](C)(O)C4)c4cnc(-c5cc(O)cc6ccc(F)c(CC)c56)c(F)c4n3)CCCN12 [Example 853, (R)-1-(2-(((3S,7aS)-3-(ethoxymethyl)tetrahydro-1H-pyrrolizin-7a(5H)-yl)methoxy)-7-(8-ethyl-7-fluoro-3-hydroxynaphthalen-1-yl)-8-fluoropyrido[4,3-d]pyrimidin-4-yl)-3-methylpiperidin-3-ol] | < 2 nM | < 2 nM | < 2 nM | 1 nM | 1070 nM | 33 nM | 67 nM | 39 nM | 23 nM | 36 nM | 10 nM | – | – | – | –
8 | C[C@@]1(O)CCCN(c2nc(OC[C@@]34CCCN3C[C@H](F)C4)nc3c(F)c(-c4ccc(F)c5sc(N)c(C#N)c45)ncc23)C1 [Example 912, 2-amino-7-fluoro-4-(8-fluoro-2-(((2R,7aS)-2-fluorotetrahydro-1H-pyrrolizin-7a(5H)-yl)methoxy)-4-((R)-3-hydroxy-3-methylpiperidin-1-yl)pyrido[4,3-d]pyrimidin-7-yl)benzo[b]thiophene-3-carbonitrile] | 45 nM | 85 nM | 69 nM | 504 nM | > 10000 nM | 2310 nM | 3310 nM | 2820 nM | 2050 nM | 1830 nM | 800 nM | – | – | – | –
9 | CCc1c(F)ccc2cc(O)cc(-c3ncc4c(N5CC6CCC(C5)C6C(N)=O)nc(OC[C@@]56CCCN5C[C@H](F)C6)nc4c3F)c12 (stereo partly drawn) [Example 861, 3-(7-(8-ethyl-7-fluoro-3-hydroxynaphthalen-1-yl)-8-fluoro-2-(((2R,7aS)-2-fluorohexahydro-1H-pyrrolizin-7a-yl)methoxy)pyrido[4,3-d]pyrimidin-4-yl)-3-azabicyclo[3.2.1]octane-8-carboxamide] | 4 nM | < 2 nM | < 2 nM | 1 nM | > 10000 nM | 1450 nM | 592 nM | 1340 nM | 173 nM | 254 nM | 45 nM | – | – | – | –
10 | CCc1c(F)ccc2cc(O)cc(-c3ncc4c(N5CC6CCC(C5)C6(C)O)nc(OC[C@@]56CCCN5C[C@H](F)C6)nc4c3F)c12 (stereo partly drawn) [Example 846, (1R,5S,8R)-3-(7-(8-ethyl-7-fluoro-3-hydroxynaphthalen-1-yl)-8-fluoro-2-(((2R,7aS)-2-fluorotetrahydro-1H-pyrrolizin-7a(5H)-yl)methoxy)pyrido[4,3-d]pyrimidin-4-yl)-8-methyl-3-azabicyclo[3.2.1]octan-8-ol] | 159 nM | 38 nM | 28 nM | 102 nM | > 10000 nM | 4470 nM | 2850 nM | 2680 nM | 238 nM | 572 nM | 746 nM | – | – | – | –
